Source: patent publication US20140322139A1, “STABILIZATION OF X-RAY DIAGNOSTIC COMPOSITION” (GE HEALTHCARE AS, priority 2011, published 2014)

Tests used:
[1] = Physical stability study: visual inspection for crystallisation during storage; type: physicochemical; conditions: conclusion from the storage study of Ioforminol/Visipaque mixtures
Protocol: Formulated Ioforminol (320 mg I/ml) and Visipaque (Iodixanol 320 mg I/ml) were filled on 100 ml glass vials in mixtures with ratios according to Table 1. The filling was performed by using a Flexicon PF5 peristaltic pump. The vials were sealed by closures comprising stoppers and overlying caps. The vials were split into two populations, one that was subjected to heat steam sterilisation at 121° C. (autoclaving) for 20 minutes and one that was used without further treatment.
The autoclaved and non-autoclaved samples of different mixtures were placed on storage at 25, 40 and 60° C. respectively. The samples were subjected to visual inspection weekly for the first 5 weeks before inspection was carried out monthly.

[2] = Dissolution temperature of ioforminol in water for injection; type: physicochemical; conditions: water for injection as the solvent, concentration range 270-380 mg I/ml

SMILES | inhibition of primary nucleation [1] | dissolution temperature [2]
CC(=O)N(CC(O)CN(C(C)=O)c1c(I)c(C(=O)NCC(O)CO)c(I)c(C(=O)NCC(O)CO)c1I)c1c(I)c(C(=O)NCC(O)CO)c(I)c(C(=O)NCC(O)CO)c1I (centres unmarked) [Iodixanol] | potent inhibitor of primary nucleation | 
O=CN(CC(O)CN(C=O)c1c(I)c(C(=O)NCC(O)CO)c(I)c(C(=O)NCC(O)CO)c1I)c1c(I)c(C(=O)NCC(O)CO)c(I)c(C(=O)NCC(O)CO)c1I (centres unmarked) [Ioforminol, 5-[formyl-[3-[formyl-[3,5-bis(2,3-dihydroxypropylcarbamoyl)-2,4,6-triiodophenyl]amino]-2-hydroxypropyl]amino]-N,N′-bis(2,3-dihydroxypropyl)-2,4,6-triiodobenzene-1,3-dicarboxamide] |  | ~110 °C
